Data published in patent US7259000B2, “Polynucleotides encoding chimeric chemokine receptors” (Bristol-Myers Squibb Company, priority 2003, dated 2007).
Entries after “also recorded” stand apart in the source; their conditions may differ.

Experiments:
CCR3/2 chimera = target: T1, CCR3/2 chimera (Homo sapiens, UniProt P51677); assay: 125I-eotaxin binding assay on CHO CCR3/2 clone 5.5 cells
T1 construct: The total length of the CCR3/2 chimeric molecule described herein is 356 amino acids; CCR2B cytoplasmic tail (fusion partner replacing the CCR3 C terminus); expressed in transfected cells
T1 sequence (P51677 with tags, fused parts or gaps): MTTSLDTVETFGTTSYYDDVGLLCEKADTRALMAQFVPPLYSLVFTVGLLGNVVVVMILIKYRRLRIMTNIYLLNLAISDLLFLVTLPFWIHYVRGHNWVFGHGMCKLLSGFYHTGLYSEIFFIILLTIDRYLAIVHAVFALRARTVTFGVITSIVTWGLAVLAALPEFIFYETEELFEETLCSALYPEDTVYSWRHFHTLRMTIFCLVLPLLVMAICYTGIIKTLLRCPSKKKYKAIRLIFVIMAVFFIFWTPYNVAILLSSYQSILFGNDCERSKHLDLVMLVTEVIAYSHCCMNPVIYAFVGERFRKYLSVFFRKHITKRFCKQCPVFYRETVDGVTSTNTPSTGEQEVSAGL
Description: (§1) In order to compare the ability of cells expressing chimeric human CCR3/2 molecules to that of cells expressing endogenous human CCR3 to bind eotaxin, a binding assay was performed. Depending upon the questions being asked, the cells in question were either human or mouse eosinophils, CHO-K1 cells expressing recombinant CCR3 or CCR3/2, parental CHO-K1 cells or other cell types. All assay steps were conducted at room temperature. Multiscreen assay plates (#MABVN1250, Millipore Inc., Marlborough, Mass.) were incubated with 100 μl/well of blocking solution (7.5 μg/ml protamine in PBS) to block non-specific binding. After 20 minutes, the blocking solution was removed and replaced with 100 μl of binding buffer, (RPMI 1640 (Life Technologies, Grand Island, N.Y.) containing 0.1% bovine serum albumin and 20 mM HEPES buffer) and incubated for at least an additional 10 minutes.
(§2) When ready to use plate(s), the following procedure was employed. Remove the binding buffer and add the following to the well types indicated:
(§3) to TOTAL binding wells add 50 μl of binding buffer;
(§4) to NON-SPECIFIC binding wells add 50 μl of unlabeled human eotaxin to 100 nM and 1000 nM final concentration (recombinant human eotaxin—#320-EO/CF, R&D Systems, Minneapolis, Minn.) in 50 μl binding buffer; […]
(§5) Binding data were analyzed using Microsoft EXCEL and then graphed using GRAPHPAD PRISMT™. […]

CCR3 = target: T2, CCR3 (Homo sapiens, UniProt P51677); assay: 125I-eotaxin binding assay on human eosinophils; conditions: native human eosinophils; 0.15 nM 125I-labeled human eotaxin; room temperature
T2 construct: cells expressing endogenous human CCR3; endogenous in cells; host or cells: native human eosinophils
T2 sequence (P51677 1-355): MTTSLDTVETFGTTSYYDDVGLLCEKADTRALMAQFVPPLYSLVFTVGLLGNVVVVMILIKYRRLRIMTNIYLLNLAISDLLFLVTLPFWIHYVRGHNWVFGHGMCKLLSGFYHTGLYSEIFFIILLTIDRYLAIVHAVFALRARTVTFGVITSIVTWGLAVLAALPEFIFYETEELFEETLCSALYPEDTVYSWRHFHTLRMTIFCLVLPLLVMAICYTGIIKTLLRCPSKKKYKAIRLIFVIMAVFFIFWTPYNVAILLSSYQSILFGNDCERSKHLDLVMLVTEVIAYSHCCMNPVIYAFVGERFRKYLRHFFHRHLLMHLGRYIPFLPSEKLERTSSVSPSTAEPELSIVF
Description: as §1, §2, §3, §4, §5

chimeric CCR3/2 receptor = target: T3, chimeric CCR3/2 receptor (Homo sapiens, UniProt P51677); assay: phospho-ERK western blot after eotaxin stimulation of CHO CCR3/2 clone 5.5 cells; type: cell-based; conditions: nanomolar eotaxin
T3 construct: The total length of the CCR3/2 chimeric molecule described herein is 356 amino acids; CCR2B cytoplasmic tail (fusion partner replacing the CCR3 C terminus); expressed in transfected cells
T3 sequence (P51677 with tags, fused parts or gaps): T1 sequence (P51677 with tags, fused parts or gaps)
From the text: Part of the downstream signalling cascade involves the activity of kinases (proteins that add phosphate groups to specific residues in cellular proteins, thereby causing them to take on new activities and cellular roles). In the present Example, the phosphorylation of Erk (a member of a protein kinase signalling cascade) is considered to be an indication that binding of eotaxin at the cell surface is recognized by the cell signalling machinery that lies within the cytoplasm and nucleus.
Thus, the present invention further provides that a chimeric chemokine receptor (e.g., the chimeric CCR3/2 receptor) when expressed in cells is capable of downstream signalling when binding to its cognate ligand (e.g., eotaxin). Such downstream signalling involves the MAP kinase pathway, more specifically, the phosphorylation of Erk1 and Erk2 subsequent to binding of eotaxin by either CCR3 or CCR3/2.
Analysis of cell stimulation for phospho-ERK analysis by western blotting was done as previously described (Scherle et al., (1998) J. Immunol. 161(10):5681-86) with the exception that cells were specifically stimulated by exposure to eotaxin (nanomolar exposures to eotaxin listed on the bottoms of FIGS. 7A and 7B) instead of the more generic stimulant lipopolysaccharide as described in Sherle et al. (Scherle et al., (1998) J. Immunol. 161(10):5681-86).

Molecule	competition with labeled eotaxin for binding (drug inhibition curve) (CCR3/2 chimera; CHO CCR3/2 clone 5.5, 0.15 nM 125I-labeled human eotaxin, room temperature)	competition with labeled eotaxin for binding (drug inhibition curve) (CCR3)	eotaxin binding (CCR3/2 chimera; CHO cells expressing human CCR3/2)	Erk phosphorylation (downstream signalling) on exposure to eotaxin (chimeric CCR3/2 receptor)
C[C@@H](NC(=O)Nc1cccc(-c2nnnn2C)c1)[C@@H](O)CN1CCC[C@@H](Cc2ccc(F)cc2)C1 [Compound 1, N-{(1R,2S)-3-[(3S)-3-(4-fluorobenzyl)-1-piperidinyl]-2-hydroxy-1-methylpropyl}-N′-[3-(1-methyl-1H-tetraazol-5-yl)phenyl]urea]	comparable; also recorded: compete with eotaxin for binding	comparable	–	–
eotaxin: recombinant human eotaxin, chemokine peptide ligand of CCR3 (R&D Systems #320-EO/CF; 125I-labeled form from Perkin Elmer)	–	–	high levels of specific eotaxin binding; also recorded: high affinity	able to transmit a signal
